# Data published in ChEMBL document CHEMBL1949514, “Design, Synthesis, and Antitumor Activity of 4-Halocolchicines and Their Pro-drugs Activated by Cathepsin B” (ACS Med Chem Lett, 2011).
# pIC50: −log10 of the molar value.
# Key:
# HT-29 = assay: Cytotoxicity against human HT-29 cells after 96 hrs using tetracolor one; assay type: functional, cell-based; details: HT-29, 96 h
# A549 = assay: Cytotoxicity against human A549 cells after 96 hrs using tetracolor one; assay type: functional, cell-based; details: A549, 96 h
# HCT-116 [1] = assay: Cytotoxicity against human HCT116 cells after 96 hrs using tetracolor one; assay type: functional, cell-based; details: HCT-116, 96 h
# HCT-116 [2] = assay: Antitumor activity against human HCT116 cells xenografted in BALB/c mouse assessed as tumor growth inhibition at […], ip administered on day 1 to day 5 and day 8 to day 12 measured on day 21 relative to control; assay type: functional; details: HCT-116, ip, dose 0.25 mg/kg, route intraperitoneal, read-out: TGI
# HCT-116 [3] = assay: Antitumor activity against human HCT116 cells xenografted in BALB/c mouse assessed as tumor growth inhibition at 1 mg/kg, ip administered on day 1 to day 5 and day 8 to day 12 measured on day 21 relative to control; assay type: functional; details: HCT-116, ip, route intraperitoneal, read-out: TGI
# Mus musculus [4] = assay: Toxicity in human HCT116 cells xenografted BALB/c mouse assessed as mortality at […], ip administered on day 1 to day 5 and day 8 to day 12 measured on day 21; assay type: organism-based, HCT-116; design: dose 0.25 mg/kg, route intraperitoneal; details: in vivo
# Mus musculus [5] = assay: Toxicity in human HCT116 cells xenografted BALB/c mouse assessed as mortality at 1 mg/kg, ip administered on day 1 to day 5 and day 8 to day 12 measured on day 21; assay type: organism-based, HCT-116; design: dose 1 mg/kg, route intraperitoneal; details: in vivo
# HCT-116 [6] = assay: Antitumor activity against human HCT116 cells xenografted in BALB/c mouse assessed as tumor growth inhibition at 5 mg/kg, ip administered on day 1 to day 5 and day 8 to day 12 measured on day 21 relative to control; assay type: functional; details: HCT-116, ip, route intraperitoneal, read-out: TGI
# Mus musculus [7] = assay: Toxicity in human HCT116 cells xenografted BALB/c mouse assessed as mortality at 5 mg/kg, ip administered on day 1 to day 5 and day 8 to day 12 measured on day 21; assay type: organism-based, HCT-116; design: dose 5 mg/kg, route intraperitoneal; details: in vivo
# [8] = Prodrug conversion assessed as (S)-7-Amino-1,2,3,10-tetramethoxy-6,7-dihydro-5H-benzo[a]heptalen-9-one release at 4 uM in presence of bovine spleen cathepsin-B by HPLC analysis; assay type: physicochemical; details: cattle
# [9] = Chemical stability of the compound after 24 hrs by HPLC analysis; assay type: physicochemical
# HUVEC [10] = assay: Cytotoxicity against human HUVEC cells after 96 hrs using tetracolor one; assay type: ADME, cell-based
# HUVEC [11] = assay: Selectivity ratio of IC50 for human HUVEC cells to IC50 for human HT-29 cells
# [12] = Prodrug conversion assessed as (S)-7-Amino-4-fluoro-1,2,3,10-tetramethoxy-6,7-dihydro-5H-benzo[a]heptalen-9-one release at 4 uM in presence of bovine spleen cathepsin-B by HPLC analysis; assay type: physicochemical; details: cattle
# HCT-116 [13] = assay: Antitumor activity against human HCT116 cells xenografted in BALB/c mouse assessed as tumor growth inhibition at 1 mg/kg, ip administered on 1, 3 and 5th day measured on day 21 relative to control; assay type: functional; details: HCT-116, ip, 504 h, route intraperitoneal, read-out: TGI
Structure (SMILES),pIC50 (HT-29),pIC50 (A549),pIC50 (HCT-116 [1]),further results
COc1c(C=O)c2c(c(OC)c1OC)-c1ccc(OC)c(=O)cc1[C@@H](NC(C)=O)CC2,6.89,6.00,7.27,
COc1c(F)c2c(c(OC)c1OC)-c1ccc(OC)c(=O)cc1[C@@H](NC(C)=O)CC2,8.15,7.48,8.10,inhibition in vivo at […] (HCT-116 [2]): 25%; inhibition in vivo at 1 mg/kg (HCT-116 [3]): 55.6%; Activity (Mus musculus [4]): Non-toxic; Activity (Mus musculus [5]): Non-toxic
COc1c(Cl)c2c(c(OC)c1OC)-c1ccc(OC)c(=O)cc1[C@@H](NC(C)=O)CC2,8.00,7.92,8.05,inhibition in vivo at 5 mg/kg (HCT-116 [6]): 68.4%; Activity (Mus musculus [7]): Non-toxic
COc1c(Br)c2c(c(OC)c1OC)-c1ccc(OC)c(=O)cc1[C@@H](NC(C)=O)CC2,8.22,7.85,8.15,
COc1c(I)c2c(c(OC)c1OC)-c1ccc(OC)c(=O)cc1[C@@H](NC(C)=O)CC2,8.22,7.49,8.15,
COc1c(O)c2c(c(OC)c1OC)-c1ccc(OC)c(=O)cc1[C@@H](NC(C)=O)CC2,6.32,6.65,,
COc1c(N)c2c(c(OC)c1OC)-c1ccc(OC)c(=O)cc1[C@@H](NC(C)=O)CC2,5.81,5.66,,
COc1c(OC)c2c(c([N+](=O)[O-])c1OC)CC[C@H](NC(C)=O)c1cc(=O)c(OC)ccc1-2,7.51,7.14,7.42,
COc1cc2c(c(OC)c1OC)-c1ccc(OC)c(=O)cc1[C@@H](NC(=O)OCc1ccc(NC(=O)[C@H](CCCCN)NC(=O)[C@H](Cc3ccccc3)NC(=O)OCc3ccccc3)cc1)CC2,7.36,,,Drug metabolism [8]: Active; Stability [9]: Stable; pIC50 (HUVEC [10]): 7.12; Ratio IC50 (HUVEC [11]): 1.7
COc1c(F)c2c(c(OC)c1OC)-c1ccc(OC)c(=O)cc1[C@@H](NC(=O)OCc1ccc(NC(=O)[C@H](CCCCN)NC(=O)[C@H](Cc3ccccc3)NC(=O)OCc3ccccc3)cc1)CC2,7.04,,,Drug metabolism [12]: Active; Stability [9]: Stable; pIC50 (HUVEC [10]): 6.82; Ratio IC50 (HUVEC [11]): 1.7
COc1c(F)c2c(c(OC)c1OC)-c1ccc(OC)c(=O)cc1[C@@H](N)CC2,7.10,7.00,,pIC50 (HUVEC [10]): 7.12; Ratio IC50 (HUVEC [11]): 0.9
COc1c(Cl)c2c(c(OC)c1OC)-c1ccc(OC)c(=O)cc1[C@@H](N)CC2,6.60,6.52,,
COc1cc2c(c(OC)c1OC)-c1ccc(OC)c(=O)cc1[C@@H](NC(C)=O)CC2 [COLCHICINE],8.10,7.27,7.96,inhibition in vivo at 1 mg/kg (HCT-116 [13]): 32.8%
